This is an account of results in ChEMBL document CHEMBL1201862, “PubChem BioAssay data set” (2004).

Some test systems named below: RPMI-8226; RXF 393; Hs-578T; MOLT-4; SK-MEL-5; SK-MEL-28; K562; NCI-H226; EKVX; NCI/ADR-RES; UACC-257; SK-MEL-2; SF-295; SNB-75; BT-549; HOP-62; CCRF-CEM; PC-3; HL-60; CAKI-1.
Assay in all cases: growth of human tumour cells (NCI), 48 h

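Grown in 96-well plates, cells were treated for 48 hours with each compound at five concentrations. Insufficient inhibition: endpoint recorded as highest concentration tested. GI50 is the concentration that inhibits growth by half.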 The source made the active and inactive calls. Rule as the data show it: active = GI50 up to about 1.1 µM and inactive = higher. *1 amine or outer side, *2 acyl side, *3 side chain or, on linkers, in order; H or OH if unused. Where a SMILES comes first, the peptide text is derived from it. [ ]: non-standard residue; d: D form. The star is where a group is joined. X31 = CC(=O)N(C)SCC(N[*:1])C(=O)[*:2]; Fmoc = O=C(OCC1c2ccccc2-c2ccccc21)*; For = O=C*

`CC(C)=CC(=O)OC1C2C(C)=CC(=O)C(O)C2(C)C2C3(O)OCC24C(CC(=O)OC14)C(C)C3O` (configuration not stated): the GI50 in the test with RPMI-8226 was 0.00755 µM (active); in the test with RXF 393, 0.0149 µM (active); in the test on Hs-578T, 0.00225 µM (active); in the test with MOLT-4, 0.0011 µM (active); with SK-MEL-5, 0.00308 µM (active); in the test with SK-MEL-28, 0.00461 µM (active). Besides, the GI50 was 0.00521 µM (active) in the test with K562; 0.00984 µM (active) with NCI-H226; 0.0577 µM (active) with EKVX; 0.0724 µM (active) in the test with NCI/ADR-RES; 0.0113 µM (active) in the test on UACC-257; 0.0179 µM (active) with SK-MEL-2. Besides, the GI50 was 0.0277 µM (active) with SF-295; 0.0141 µM (active) in the test with SNB-75; 0.00287 µM (active) in the test with BT-549; 0.00942 µM (active) in the test with HOP-62; 0.00859 µM (active) in the test on CCRF-CEM; 0.00289 µM (active) in the test on PC-3. In the test on HL-60, the GI50 was 0.00269 µM (active).

Consider `CC(=O)O[C@@H]1C[C@@]23C[C@@]24CC[C@H](OC2OCC(O)C(O)C2O)C(C)(C)[C@@H]4CC=C3[C@]2(C)C[C@@H]3OC4(C[C@@H](C)[C@@H]3[C@@]12C)OC(O)[C@@]1(C)O[C@@H]41` (some centres not stated), for which the GI50 with RPMI-8226 was 19.6 µM (inactive); in the test on RXF 393, 15.9 µM (inactive); in the test on Hs-578T, 40.4 µM (inactive); in the test on SK-MEL-5 it was 19.7 µM (inactive); in the test on SK-MEL-28, 41.2 µM (inactive); in the test with K562 it was 23.8 µM (inactive). In addition, the GI50 in the test with NCI-H226 is 35.4 µM (inactive); with EKVX it was 33.4 µM (inactive); in the test with NCI/ADR-RES it was 43.9 µM (inactive); in the test with CAKI-1 it was 46.1 µM (inactive); in the test with UACC-257, 26.9 µM (inactive); in the test on SK-MEL-2 it was 19.7 µM (inactive). For the same molecule, the GI50 was 25.7 µM (inactive) in the test with SF-295; 25 µM (inactive) in the test on SNB-75; 27.9 µM (inactive) with BT-549; 27.4 µM (inactive) in the test with HOP-62; 11.7 µM (inactive) with CCRF-CEM; 22.9 µM (inactive) in the test with PC-3. In the test with HL-60, the GI50 is 7.73 µM (inactive).

As for `O=C1NC(NCc2ccc(F)cc2)=N/C1=C\c1ccccc1Cl`, the GI50 in the test with RXF 393 is 19.6 µM (inactive); in the test on Hs-578T, 30.5 µM (inactive); with MOLT-4, 12.9 µM (inactive); in the test with SK-MEL-5 it was 13.4 µM (inactive); in the test with SK-MEL-28 it was 23.6 µM (inactive); with K562, 11.9 µM (inactive). Further, the GI50 with NCI-H226 is 18.1 µM (inactive); in the test on EKVX, 19.8 µM (inactive); in the test on NCI/ADR-RES, 20.1 µM (inactive); in the test with CAKI-1 it was 23.9 µM (inactive); in the test with UACC-257, 24.9 µM (inactive); in the test on SK-MEL-2, 15.8 µM (inactive). In addition, the GI50 in the test on SF-295 was 17.1 µM (inactive); with SNB-75, 7.4 µM (inactive); in the test on BT-549 it was 23.7 µM (inactive); with HOP-62, 19.1 µM (inactive); with PC-3 it was 15.9 µM (inactive); in the test with HL-60 it was 13.4 µM (inactive).

Consider `N#Cc1nsnc1-c1nc(-c2nsnc2C#N)nc(-c2nsnc2C#N)n1`, for which the GI50 with RPMI-8226 was > 100 µM (inactive); in the test with RXF 393, 63.8 µM (inactive); in the test on Hs-578T it was 37.7 µM (inactive); in the test on MOLT-4 it was > 100 µM (inactive); with SK-MEL-5, > 100 µM (inactive); with SK-MEL-28, > 100 µM (inactive). Besides, the GI50 in the test with K562, with NCI-H226, with EKVX, in the test on NCI/ADR-RES, with CAKI-1 and in the test on UACC-257 was > 100 µM (inactive) throughout. The GI50 in the test with SK-MEL-2, in the test with SF-295, in the test on SNB-75, with BT-549, with HOP-62 and in the test on PC-3 was > 100 µM (inactive) each time. Moreover, in the test with HL-60, the GI50 was 76.6 µM (inactive).

As for `CCN(CC)CC(=O)O[C@]1(CC)C(=O)OCc2c1cc1n(c2=O)Cc2cc3ccccc3nc2-1`, the GI50 in the test with RPMI-8226 is 0.165 µM (active); with RXF 393, 0.0836 µM (active); in the test with Hs-578T it was 3.21 µM (inactive); in the test with MOLT-4, < 0.01 µM (active); in the test on SK-MEL-5 it was 0.0313 µM (active); in the test on SK-MEL-28 it was 0.179 µM (active). Besides, the GI50 with K562 is 0.0451 µM (active); with NCI-H226, 0.0209 µM (active); with EKVX, 0.256 µM (active); in the test on NCI/ADR-RES, < 0.01 µM (active); in the test on CAKI-1, < 0.01 µM (active); in the test with UACC-257, 0.0798 µM (active). Further, the GI50 with SK-MEL-2 was 0.382 µM (active); with SF-295, 0.0102 µM (active); in the test on SNB-75, 0.0266 µM (active); in the test on BT-549, 0.0413 µM (active); in the test on HOP-62 it was < 0.01 µM (active); in the test with CCRF-CEM it was < 0.01 µM (active). The GI50 in the test on PC-3 was 0.054 µM (active); with HL-60, 0.0171 µM (active).

With `S=C(NC/C(Br)=C/Br)Nc1cccc2ccccc12`, the GI50 in the test with RPMI-8226 was 15.4 µM (inactive); in the test on RXF 393, 31.3 µM (inactive); with Hs-578T, > 100 µM (inactive); in the test with MOLT-4, 17.8 µM (inactive); in the test with SK-MEL-5, 16.4 µM (inactive); in the test with K562 it was 11.7 µM (inactive). Moreover, the GI50 was 26.7 µM (inactive) with NCI-H226; 28.9 µM (inactive) in the test with EKVX; 19 µM (inactive) in the test on NCI/ADR-RES; 29.2 µM (inactive) in the test on CAKI-1; 22.5 µM (inactive) with UACC-257; 20.4 µM (inactive) with SK-MEL-2. Moreover, the GI50 in the test on SF-295 is 33.3 µM (inactive); in the test with SNB-75, 33.5 µM (inactive); in the test with BT-549, 33.3 µM (inactive); with HOP-62, 30.3 µM (inactive); in the test on CCRF-CEM, 18.3 µM (inactive); in the test with PC-3 it was 23.1 µM (inactive). In the test with HL-60, the GI50 was 12.9 µM (inactive).

On to `COc1cc2oc(-c3ccc4c(c3)OCO4)c(OC)c(=O)c2c(O)c1OC`, for which the GI50 with RXF 393 is > 50 µM (inactive); with Hs-578T, > 50 µM (inactive); in the test on MOLT-4 it was > 50 µM (inactive); with SK-MEL-5, > 50 µM (inactive); with SK-MEL-28, > 50 µM (inactive); in the test with K562 it was 27.9 µM (inactive). In addition, the GI50 in the test with NCI-H226, with EKVX, with NCI/ADR-RES, in the test with CAKI-1, in the test on UACC-257 and with SK-MEL-2 was > 50 µM (inactive) in each case. In addition, the GI50 in the test on SF-295 is 43.8 µM (inactive); in the test with SNB-75, 28.6 µM (inactive); with BT-549, 34.9 µM (inactive); in the test on HOP-62 it was 15.7 µM (inactive); in the test with CCRF-CEM, > 50 µM (inactive); in the test on PC-3 it was > 50 µM (inactive). The GI50 in the test on HL-60 is > 50 µM (inactive).

In the case of `N=C(N)NS(=O)(=O)c1ccc(NNc2c3ccccc3nc3ccccc23)cc1`, the GI50 in the test on RPMI-8226 was 12.6 µM (inactive); in the test on RXF 393, 12.9 µM (inactive); in the test with Hs-578T it was 23.9 µM (inactive); in the test with MOLT-4, 0.472 µM (active); in the test on SK-MEL-5, 9.31 µM (inactive); with SK-MEL-28, 13.8 µM (inactive). In addition, the GI50 in the test with K562 was 6.04 µM (inactive); in the test on NCI-H226, 1.08 µM (active); in the test with EKVX it was 10.6 µM (inactive); with NCI/ADR-RES, 26.4 µM (inactive); in the test on CAKI-1 it was 15.8 µM (inactive); in the test on UACC-257 it was 20 µM (inactive). The GI50 in the test on SK-MEL-2 is 18.2 µM (inactive); in the test on SF-295 it was 13.8 µM (inactive); with SNB-75, 16.5 µM (inactive); with BT-549, 1.18 µM (inactive); in the test on HOP-62 it was 6.87 µM (inactive); in the test with CCRF-CEM, 1.23 µM (inactive). Further, the figures for the GI50 in the test with PC-3 and in the test with HL-60 were 8.75 µM (inactive) and 4.49 µM (inactive), respectively.

In the case of `N#Cc1cc([N+](=O)[O-])ccc1NC(=O)/C(=N\NC(=O)c1ccncc1)C(c1cnc2ccc([N+](=O)[O-])cc2n1)[N+](=O)[O-]` (configuration not stated), the GI50 in the test on RPMI-8226 was 5.89 µM (inactive); in the test with RXF 393 it was 4.44 µM (inactive); in the test with Hs-578T, 2.26 µM (inactive); in the test with MOLT-4, 7.23 µM (inactive); with SK-MEL-5 it was 0.869 µM (active); in the test on SK-MEL-28, 2.17 µM (inactive). For the same molecule, the GI50 was 2.02 µM (inactive) in the test with K562; 2.45 µM (inactive) with NCI-H226; 9.31 µM (inactive) in the test with EKVX; 6.41 µM (inactive) in the test on NCI/ADR-RES; 5.98 µM (inactive) in the test on CAKI-1; 1.55 µM (inactive) in the test with UACC-257. The GI50 with SK-MEL-2 is 1.75 µM (inactive); with SF-295, 1.78 µM (inactive); in the test with SNB-75, 1.99 µM (inactive); with BT-549 it was 1.85 µM (inactive); in the test on HOP-62 it was 2.81 µM (inactive); with CCRF-CEM, 3.38 µM (inactive). The GI50 is 3.33 µM (inactive) in the test on PC-3 and 3.51 µM (inactive) in the test on HL-60.

As for `CC(=O)N(C)SCC(NC(=O)C(Cc1ccccc1)NC(=O)OCC1c2ccccc2-c2ccccc21)C(=O)NC(Cc1ccccc1)C(=O)NC(Cc1cn(C=O)c2ccccc12)C(=O)NC(CCCCNC(=O)OCC1c2ccccc2-c2ccccc21)C(=O)NC(C(=O)NC(CSN(C)C(C)=O)C(=O)NC(C(N)=O)C(C)O)C(C)O` (configuration not stated) (Fmoc-F[X31]FW(For)K(Fmoc)T[X31]T-NH2; configuration not given here), the GI50 in the test on RPMI-8226 was > 100 µM (inactive); in the test with RXF 393, 20.5 µM (inactive); in the test with Hs-578T, > 100 µM (inactive); in the test with MOLT-4 it was > 100 µM (inactive); in the test on SK-MEL-5 it was 55.1 µM (inactive); with SK-MEL-28, > 100 µM (inactive). The GI50 in the test with K562 was > 100 µM (inactive); with NCI-H226, > 100 µM (inactive); in the test with EKVX it was 84.9 µM (inactive); in the test with NCI/ADR-RES, > 100 µM (inactive); with UACC-257, 90.2 µM (inactive); in the test with SK-MEL-2, 40.6 µM (inactive). Besides, the GI50 is 89.5 µM (inactive) in the test on SF-295; 33.1 µM (inactive) in the test on SNB-75; > 100 µM (inactive) with BT-549; > 100 µM (inactive) in the test with HOP-62; > 100 µM (inactive) in the test with CCRF-CEM; 97.1 µM (inactive) in the test with PC-3. Also, the GI50 in the test with HL-60 was > 100 µM (inactive).
